Laboratory results published in paper PMC4340402 (The Journal of Biological Chemistry, 2014).
Substitutions are numbered along the chain they refer to. Each block holds one molecule with its values, some of them ahead of it.

Key:
Assay in all cases: two-electrode voltage clamp, Xenopus oocytes
X1-CγX4 = test system: T1, X1-CγX4; type: cell-based, Homo sapiens; Rattus norvegicus; conditions: agonist; 3 s application; ND96 with Ba2+, -60 mV
T1 construct: gene P2RX1; hP2X1 with residues 210-215 replaced by the corresponding rP2X4 segment; Xenopus oocytes
From the text: two-electrode voltage clamp, Xenopus oocytes on X1-CγX4

X1-DX4 = test system: T2, X1-DX4; type: cell-based, Homo sapiens; Rattus norvegicus; conditions: ND96 with Ba2+, -60 mV
T2 construct: gene P2RX1; hP2X1 with residues 262-330 (hP2X1 numbering) replaced by the corresponding rP2X4 segment; Xenopus oocytes
From the text: two-electrode voltage clamp, Xenopus oocytes on X1-DX4

X1-CαX4 = test system: T3, X1-CαX4; type: cell-based, Homo sapiens; Rattus norvegicus; conditions: agonist; 3 s application; ND96 with Ba2+, -60 mV
T3 construct: gene P2RX1; text says 184-209) replaced by the corresponding rP2X4 segment; Xenopus oocytes
From the text: two-electrode voltage clamp, Xenopus oocytes on X1-CαX4

X1-CζX4 = test system: T4, X1-CζX4; type: cell-based, Homo sapiens; Rattus norvegicus; conditions: agonist; 3 s application; ND96 with Ba2+, -60 mV
T4 construct: gene P2RX1; hP2X1 with residues 227-231 replaced by the corresponding rP2X4 segment; Xenopus oocytes
From the text: two-electrode voltage clamp, Xenopus oocytes on X1-CζX4

X1-CβX4 = test system: T5, X1-CβX4; type: cell-based, Homo sapiens; Rattus norvegicus; conditions: agonist; 3 s application; ND96 with Ba2+, -60 mV
T5 construct: gene P2RX1; hP2X1 with residues 232-261 replaced by the corresponding rP2X4 segment; Xenopus oocytes
From the text: two-electrode voltage clamp, Xenopus oocytes on X1-CβX4

X1-BX4 [1] = test system: T6, X1-BX4; type: cell-based, Homo sapiens; Rattus norvegicus; conditions: agonist; 3 s application; ND96 with Ba2+, -60 mV
T6 construct: gene P2RX1; hP2X1 with residues 133-184 (hP2X1 numbering) replaced by the corresponding rP2X4 segment; Xenopus oocytes

X1-CX4 = test system: T7, X1-CX4; type: cell-based, Homo sapiens; Rattus norvegicus; conditions: ND96 with Ba2+, -60 mV
T7 construct: gene P2RX1; hP2X1 with residues 185-261 (hP2X1 numbering) replaced by the corresponding rP2X4 segment; Xenopus oocytes
From the text: two-electrode voltage clamp, Xenopus oocytes on X1-CX4

hP2X1 receptor = target: T8, hP2X1 receptor (Homo sapiens, UniProt P51575); type: cell-based
T8 construct: gene P2RX1; full-length cDNA cloned from bladder; homotrimer; cRNA expressed in Xenopus laevis oocytes
T8 sequence (P51575 1-399): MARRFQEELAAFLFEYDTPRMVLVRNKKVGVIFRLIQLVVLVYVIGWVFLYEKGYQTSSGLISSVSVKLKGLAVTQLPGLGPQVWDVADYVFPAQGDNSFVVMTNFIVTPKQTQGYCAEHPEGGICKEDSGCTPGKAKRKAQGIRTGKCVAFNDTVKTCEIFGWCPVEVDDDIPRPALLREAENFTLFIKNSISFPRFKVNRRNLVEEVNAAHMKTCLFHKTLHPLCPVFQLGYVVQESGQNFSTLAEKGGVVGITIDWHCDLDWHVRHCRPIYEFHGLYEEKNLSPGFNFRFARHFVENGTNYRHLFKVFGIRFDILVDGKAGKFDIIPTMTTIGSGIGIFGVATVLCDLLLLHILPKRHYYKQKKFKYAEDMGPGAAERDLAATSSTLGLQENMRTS
From the text: two-electrode voltage clamp, Xenopus oocytes on hP2X1 receptor

X1-CδX4 = test system: T9, X1-CδX4; type: cell-based, Homo sapiens; Rattus norvegicus; conditions: agonist; 3 s application; ND96 with Ba2+, -60 mV
T9 construct: gene P2RX1; hP2X1 with residues 216-220 replaced by the corresponding rP2X4 segment; Xenopus oocytes
From the text: two-electrode voltage clamp, Xenopus oocytes on X1-CδX4

X1-AX4 = test system: T10, X1-AX4; type: cell-based, Homo sapiens; Rattus norvegicus; conditions: ND96 with Ba2+, -60 mV
T10 construct: gene P2RX1; hP2X1 with residues 63-132 replaced by the corresponding rP2X4 segment (63-133); Xenopus oocytes
From the text: two-electrode voltage clamp, Xenopus oocytes on X1-AX4

X1-CϵX4 = test system: T11, X1-CϵX4; type: cell-based, Homo sapiens; Rattus norvegicus; conditions: agonist; 3 s application; ND96 with Ba2+, -60 mV
T11 construct: gene P2RX1; hP2X1 with residues 221-226 replaced by the corresponding rP2X4 segment; Xenopus oocytes
From the text: two-electrode voltage clamp, Xenopus oocytes on X1-CϵX4

X1-BX4 [2] = test system: T6, X1-BX4; type: cell-based, Homo sapiens; Rattus norvegicus; conditions: ND96 with Ba2+, -60 mV
From the text: two-electrode voltage clamp, Xenopus oocytes on X1-BX4

rP2X4 receptor [3] = target: T12, rP2X4 receptor (Rattus norvegicus, UniProt P51577, Y378A); type: cell-based
T12 construct: gene P2rx4; homotrimer; cRNA expressed in Xenopus laevis oocytes
T12 sequence (P51577 1-388 Y378A): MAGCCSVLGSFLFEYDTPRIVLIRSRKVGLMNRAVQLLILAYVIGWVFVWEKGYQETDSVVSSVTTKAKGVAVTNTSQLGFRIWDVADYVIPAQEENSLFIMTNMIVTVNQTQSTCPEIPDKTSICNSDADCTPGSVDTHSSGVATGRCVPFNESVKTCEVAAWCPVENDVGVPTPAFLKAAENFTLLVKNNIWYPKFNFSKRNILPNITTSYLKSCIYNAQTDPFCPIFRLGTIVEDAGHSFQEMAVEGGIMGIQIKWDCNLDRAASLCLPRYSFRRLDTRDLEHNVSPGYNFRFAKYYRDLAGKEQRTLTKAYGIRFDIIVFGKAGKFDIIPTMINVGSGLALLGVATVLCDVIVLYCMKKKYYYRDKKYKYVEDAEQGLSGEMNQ
From the text: two-electrode voltage clamp, Xenopus oocytes on rP2X4 receptor

X1-BX4 [4] = test system: T6, X1-BX4; type: cell-based, Homo sapiens; Rattus norvegicus; conditions: antagonist at EC90 of ATP; 5 min preincubation; ND96 with Ba2+, -60 mV
rP2X4 receptor [5] = target: T13, rP2X4 receptor (Rattus norvegicus, UniProt P51577, D138K/H140K/S136K/T139R/Y378A); type: cell-based; conditions: read-out: % of control at 1 μM
T13 construct: gene P2rx4; homotrimer; cRNA expressed in Xenopus laevis oocytes
T13 sequence (P51577 1-388 S136K/D138K/T139R/H140K/Y378A): T12 sequence (P51577 1-388 Y378A) with S136K, D138K, T139R, H140K

[6] = read-out: ATP / pEC50 (converted)
[7] = antagonist at EC90 of ATP, 5 min preincubation

ATP / pEC50 (X1-CγX4): 5.71 ± 0.06 | ATP / pEC50 (X1-DX4; agonist, 3 s application): 5.08 ± 0.04 | ATP / pEC50 (X1-CαX4): 5.34 ± 0.05 | ATP / pEC50 (X1-CζX4): 5.54 ± 0.06 | ATP / pEC50 (X1-CβX4): 5.30 ± 0.06 | pEC50 (X1-BX4 [1]): 3.6 ± 0.1 | ATP / pEC50 (X1-CX4; agonist, 3 s application): 6.17 ± 0.13 | EC50 (hP2X1 receptor; [6]): 490 nM | ATP / pEC50 (X1-CδX4): 5.21 ± 0.04 | ATP / pEC50 (X1-AX4; agonist, 3 s application): 4.43 ± 0.08 | ATP / pEC50 (X1-CϵX4): 5.68 ± 0.06 | ATP / pEC50 (X1-BX4 [2]; agonist, 3 s application): 4.28 ± 0.04 | EC50 (rP2X4 receptor [3]; [6]): 4070 nM
Compound: Nc1ncnc2c1ncn2[C@@H]1O[C@H](COP(=O)(O)OP(=O)(O)OP(=O)(O)O)[C@@H](O)[C@H]1O [ATP]

pIC50 (X1-BX4 [4]): 9.28 ± 0.05 | remaining activity at 1 µM (rP2X4 receptor [5]): 104 ± 5.3% | IC50 (rP2X4 receptor [3]): > 1000 nM
Compound: O=C(Nc1cc(C(=O)Nc2ccc(S(=O)(=O)O)cc2S(=O)(=O)O)cc(C(=O)Nc2ccc(S(=O)(=O)O)cc2S(=O)(=O)O)c1)Nc1cc(C(=O)Nc2ccc(S(=O)(=O)O)cc2S(=O)(=O)O)cc(C(=O)Nc2ccc(S(=O)(=O)O)cc2S(=O)(=O)O)c1 [NF449, 4,4′,4″,4‴-(carbonylbis(imino-5,1,3-benzenetriylbis(carbonylimino)))tetrakisbenzene-1,3-disulfonic acid]

PPADS / pIC50 (X1-DX4; [7]): 6.95 ± 0.07 | PPADS / pIC50 (X1-CX4; [7]): 5.47 ± 0.12 | IC50 (hP2X1 receptor; read-out: PPADS / pIC50 (converted)): 1580 nM | PPADS / pIC50 (X1-AX4; [7]): 6.18 ± 0.02 | PPADS / pIC50 (X1-BX4 [2]; [7]): 5.24 ± 0.12 | IC50 (rP2X4 receptor [3]): > 100000 nM
Compound: Cc1nc(N=Nc2ccc(S(=O)(=O)O)cc2S(=O)(=O)O)c(COP(=O)(O)O)c(C=O)c1O [PPADS, pyridoxal-phosphate-6-azophenyl-2,4-disulfonate]

IC50 (rP2X4 receptor [3]): > 100000 nM
Compound: Cc1ccc(C(=O)Nc2ccc(S(=O)(=O)O)c3cc(S(=O)(=O)O)cc(S(=O)(=O)O)c23)cc1NC(=O)c1cccc(NC(=O)Nc2cccc(C(=O)Nc3cc(C(=O)Nc4ccc(S(=O)(=O)O)c5cc(S(=O)(=O)O)cc(S(=O)(=O)O)c45)ccc3C)c2)c1 [Suramin]
